This note sets out measurements from patent US20110195900A1, “PEPTIDIC PTH RECEPTOR AGONISTS” (FERRING B.V., priority 2008, published 2011).

Molecules are shown by their SMILES. Read-outs that look alike come from different tables or passages of the source. Non-standard residues stand in square brackets, D forms with d. Residues, ends and D or L forms follow the SMILES beside them. 1Nal = N[C@@H](Cc1cccc2ccccc12)C(=O)O; β3hI = CC[C@H](C)[C@H](N)CC(=O)O; Nle = CCCC[C@H](N)C(=O)O; Aib = CC(C)(N)C(=O)O; βAla = NCCC(=O)O

The target in one assay is T1, human PTH-2 receptor (Homo sapiens, UniProt P49190).
T1 construct: expressed in transfected cells
T1 sequence (P49190 25-550): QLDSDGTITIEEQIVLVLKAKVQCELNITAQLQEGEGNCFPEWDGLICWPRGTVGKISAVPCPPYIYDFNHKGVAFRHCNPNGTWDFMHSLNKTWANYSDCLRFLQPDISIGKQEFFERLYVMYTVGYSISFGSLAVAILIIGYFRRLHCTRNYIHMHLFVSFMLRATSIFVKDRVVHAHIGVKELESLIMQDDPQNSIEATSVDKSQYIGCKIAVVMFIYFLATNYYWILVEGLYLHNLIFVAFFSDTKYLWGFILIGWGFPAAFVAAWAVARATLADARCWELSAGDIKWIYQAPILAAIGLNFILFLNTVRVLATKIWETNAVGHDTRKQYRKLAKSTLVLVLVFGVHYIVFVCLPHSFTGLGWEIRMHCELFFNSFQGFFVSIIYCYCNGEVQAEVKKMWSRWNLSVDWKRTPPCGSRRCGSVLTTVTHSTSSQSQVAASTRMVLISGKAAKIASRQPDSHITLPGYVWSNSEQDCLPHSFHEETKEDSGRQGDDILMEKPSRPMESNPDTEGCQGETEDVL
Description: Luciferase-based transcriptional reporter gene assay for selectivity. The class given is cell-based. As to the method: Agonist activity of compounds on the human PTH-1 receptor was determined in a reporter gene assay by transiently transfecting HEK-293 cells with plasmids encoding human PTH-1 receptor under control of the SV40 promoter and a luciferase reporter gene under control of cAMP responsive elements (CRE). See Himmler et al, J. Recept. Res. 13 (1993) 79-94, for further guidance on this assay. Transfected cells were exposed to serial dilutions of compounds for 4-5 hours followed by lysis of cells, determination of luciferase activity, and determination of compound efficacies and EC50 values through non-linear regression.
PTH (1-34) was used as an internal control in each experiment and compounds were tested in at least three independent experiments. To determine selectivity, compounds were tested in luciferase-based transcriptional reporter gene assays expressing the human PTH-2 receptor.

The target in another assay is T2, human PTH-1 receptor (Homo sapiens, UniProt Q03431).
T2 construct: expressed in transfected cells; host or cells: HEK-293
T2 sequence (Q03431 27-593): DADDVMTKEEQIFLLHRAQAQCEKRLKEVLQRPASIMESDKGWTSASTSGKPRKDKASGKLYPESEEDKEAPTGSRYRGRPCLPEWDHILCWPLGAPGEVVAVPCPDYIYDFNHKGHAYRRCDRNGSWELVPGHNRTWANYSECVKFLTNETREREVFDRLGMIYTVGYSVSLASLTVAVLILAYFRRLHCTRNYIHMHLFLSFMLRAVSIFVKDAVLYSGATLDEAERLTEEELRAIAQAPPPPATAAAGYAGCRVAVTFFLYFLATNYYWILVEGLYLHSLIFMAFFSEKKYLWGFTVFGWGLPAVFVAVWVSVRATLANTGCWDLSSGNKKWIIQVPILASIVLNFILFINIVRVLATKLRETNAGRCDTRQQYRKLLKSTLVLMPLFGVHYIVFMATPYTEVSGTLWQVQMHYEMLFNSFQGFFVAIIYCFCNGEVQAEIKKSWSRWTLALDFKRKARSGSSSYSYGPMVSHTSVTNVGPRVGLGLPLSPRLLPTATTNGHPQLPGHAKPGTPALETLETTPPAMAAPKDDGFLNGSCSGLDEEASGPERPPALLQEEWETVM
The assay is described as follows: Reporter gene assay (CRE-luciferase) for agonist activity in transiently transfected HEK-293 cells. The class given is cell-based. As to conditions: for hPTHR-2/hPTHR-1: Table 3, selectivity for hPTH-1 receptor over hPTH-2 receptor; for hPTHR-2/hPTHR-1 / Selectivity hPTHR-2/hPTHR-1: ratio of EC50 values; for Selectivity hPTHR-2/hPTHR-1: Table 4 comparison data. The method, boiled down: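 HEK-293 cells transiently transfected with SV40-driven human PTH-1 receptor and CRE-luciferase reporter, exposed to serial compound dilutions for 4-5 h, then lysed for luciferase readout; efficacy and EC50 by non-linear regression, PTH (1-34) as internal control, n≥3. Selectivity measured in analogous human PTH-2 receptor luciferase reporter assays.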
On the technique in general: In a reporter assay the amount or activity of a reporter protein is the signal.

The EC50 is the concentration needed to bring the measured effect to its halfway point. For the compound `CCCC[C@H](NC(=O)CCNC(=O)[C@H](CC(N)=O)NC(=O)[C@H](CC(C)C)NC(=O)[C@H](Cc1c[nH]cn1)NC(=O)[C@H](CCCCN)NC(=O)CNC(=O)[C@H](CC(C)C)NC(=O)[C@H](CC(N)=O)NC(=O)[C@H](Cc1c[nH]cn1)NC(=O)[C@H](CCCC)NC(=O)[C@H](CC(C)C)NC(=O)[C@H](CCC(N)=O)NC(=O)[C@@H](NC(=O)[C@H](CCC(=O)O)NC(=O)[C@H](CO)NC(=O)[C@@H](NC(=O)C(C)(C)N)C(C)C)[C@@H](C)CC)C(=O)N[C@@H](CCC(=O)O)C(=O)N[C@@H](CCCNC(=N)N)C(=O)N[C@H](C(=O)N[C@@H](CCC(=O)O)C(=O)N[C@@H](Cc1cccc2ccccc12)C(=O)N[C@@H](CC(C)C)C(=O)N[C@@H](CCCNC(=N)N)C(=O)N[C@@H](CCCCN)C(=O)N[C@@H](CC(C)C)C(=O)N[C@@H](CC(C)C)C(=O)N[C@@H](CCC(N)=O)C(=O)N[C@@H](CC(=O)O)C(=O)N[C@H](C(=O)N[C@@H](Cc1c[nH]cn1)C(=O)N[C@@H](CC(N)=O)C(=O)N[C@@H](Cc1ccccc1)C(N)=O)C(C)C)C(C)C` [SEQ ID NO: 2, [Aib^1, Nle^8,18, β-Ala^17,1-Nal^23, Leu^27] hPTH (1-34)-NH2] (H-[Aib]VSEIQL[Nle]HNLGKHLN[βAla][Nle]ERVE[1Nal]LRKLLQDVHNF-NH2), the EC50 on human PTH-2 receptor is 31 nM. In addition, at human PTH-1 receptor, the midpoint of the response, the EC50, lay at 0.06 nM; the hPTHR-2/hPTHR-1 is given as 566; the “Selectivity hPTHR-2/hPTHR-1” value was 566.

For `CCCC[C@H](NC(=O)[C@H](CO)NC(=O)[C@H](CC(N)=O)NC(=O)[C@H](CC(C)C)NC(=O)[C@H](Cc1c[nH]cn1)NC(=O)[C@H](CCCCN)NC(=O)CNC(=O)[C@H](CC(C)C)NC(=O)[C@H](CC(N)=O)NC(=O)[C@H](Cc1c[nH]cn1)NC(=O)[C@H](CCCC)NC(=O)[C@H](CC(C)C)NC(=O)[C@H](CCC(N)=O)NC(=O)[C@@H](NC(=O)[C@H](CCC(=O)O)NC(=O)[C@H](CO)NC(=O)[C@@H](NC(=O)[C@@H](N)CO)C(C)C)[C@@H](C)CC)C(=O)NCCC(=O)N[C@@H](CCCNC(=N)N)C(=O)N[C@H](C(=O)N[C@@H](CCC(=O)O)C(=O)N[C@@H](Cc1cccc2ccccc12)C(=O)N[C@@H](CC(C)C)C(=O)N[C@@H](CCCNC(=N)N)C(=O)N[C@@H](CCCCN)C(=O)N[C@@H](CC(C)C)C(=O)N[C@@H](CC(C)C)C(=O)N[C@@H](CCC(N)=O)C(=O)N[C@@H](CC(=O)O)C(=O)N[C@H](C(=O)N[C@@H](Cc1c[nH]cn1)C(=O)N[C@@H](CC(N)=O)C(=O)N[C@@H](Cc1ccccc1)C(N)=O)C(C)C)C(C)C` [SEQ ID NO: 11, [Nle^8,18, β-Ala^19,1-Nal^23, Leu^27] hPTH-(1-34)-NH2] (H-SVSEIQL[Nle]HNLGKHLNS[Nle][βAla]RVE[1Nal]LRKLLQDVHNF-NH2; N-terminus assumed), the EC50 on human PTH-2 receptor (Table 3, luciferase reporter gene assay, read-out: hPTHR-2 EC50) turned out to be 18 nM. Besides, at human PTH-1 receptor, the hPTHR-2/hPTHR-1 was 69.

With `CCCC[C@H](NC(=O)[C@H](CC(C)C)NC(=O)[C@H](CCC(N)=O)NC(=O)[C@@H](NC(=O)[C@H](CCC(=O)O)NC(=O)[C@H](CO)NC(=O)[C@@H](NC(=O)[C@@H](N)CO)C(C)C)[C@@H](C)CC)C(=O)N[C@@H](Cc1c[nH]cn1)C(=O)N[C@@H](CC(N)=O)C(=O)N[C@@H](CC(C)C)C(=O)NC(C)(C)C(=O)N[C@@H](CCCCN)C(=O)N[C@@H](Cc1c[nH]cn1)C(=O)N[C@@H](CC(C)C)C(=O)N[C@@H](CC(N)=O)C(=O)N[C@@H](CO)C(=O)N[C@H](CC(=O)N[C@@H](CCC(=O)O)C(=O)N[C@@H](CCCNC(=N)N)C(=O)N[C@H](C(=O)N[C@@H](CCC(=O)O)C(=O)N[C@@H](Cc1cccc2ccccc12)C(=O)N[C@@H](CC(C)C)C(=O)N[C@@H](CCCNC(=N)N)C(=O)N[C@@H](CCCCN)C(=O)N[C@@H](CC(C)C)C(=O)N[C@@H](CC(C)C)C(=O)N[C@@H](CCC(N)=O)C(=O)N[C@@H](CC(=O)O)C(=O)N[C@H](C(=O)N[C@@H](Cc1c[nH]cn1)C(=O)N[C@@H](CC(N)=O)C(=O)N[C@@H](Cc1ccccc1)C(N)=O)C(C)C)C(C)C)[C@@H](C)CC` [SEQ ID NO: 32, [Nle^8, Aib^12, β-hIle^18,1-Nal^23, Leu^27] hPTH (1-34)-NH2] (H-SVSEIQL[Nle]HNL[Aib]KHLNS[β3hI]ERVE[1Nal]LRKLLQDVHNF-NH2), on human PTH-2 receptor, the EC50 came to 13 nM. For the same compound, the hPTHR-2/hPTHR-1 on human PTH-1 receptor is reported as 55.

As to `CCCC[C@H](NC(=O)[C@H](CC(C)C)NC(=O)[C@H](CCC(N)=O)NC(=O)[C@@H](NC(=O)[C@H](CCC(=O)O)NC(=O)[C@H](CO)NC(=O)[C@@H](NC(=O)[C@@H](N)CO)C(C)C)[C@@H](C)CC)C(=O)N[C@@H](Cc1c[nH]cn1)C(=O)N[C@@H](CC(N)=O)C(=O)N[C@@H](CC(C)C)C(=O)NCC(=O)N[C@@H](CCCCN)C(=O)N[C@@H](Cc1c[nH]cn1)C(=O)N[C@@H](CC(C)C)C(=O)N[C@@H](CC(N)=O)C(=O)N[C@@H](CO)C(=O)N[C@H](CC(=O)N[C@@H](CCC(=O)O)C(=O)N[C@@H](CCCNC(=N)N)C(=O)N[C@H](C(=O)N[C@@H](CCC(=O)O)C(=O)N[C@@H](Cc1cccc2ccccc12)C(=O)N[C@@H](CC(C)C)C(=O)N[C@@H](CCCNC(=N)N)C(=O)N[C@@H](CCCCN)C(=O)N[C@@H](CC(C)C)C(=O)N[C@@H](CC(C)C)C(=O)N[C@@H](CCC(N)=O)C(=O)N[C@@H](Cc1c[nH]cn1)C(=O)N[C@H](C(=O)N[C@@H](Cc1c[nH]cn1)C(=O)N[C@@H](CC(N)=O)C(=O)N[C@@H](Cc1ccccc1)C(N)=O)C(C)C)C(C)C)[C@@H](C)CC` [SEQ ID NO: 25, [Nle^8, β-hIle^18,1-Nal^23, Leu^27, His^30] hPTH (1-34)-NH2] (H-SVSEIQL[Nle]HNLGKHLNS[β3hI]ERVE[1Nal]LRKLLQHVHNF-NH2), the EC50 on human PTH-2 receptor came out at 13 nM; on human PTH-1 receptor it was 0.18 nM. Moreover, the hPTHR-2/hPTHR-1 on human PTH-1 receptor is 72.

Take `CCCC[C@H](NC(=O)[C@H](CC(C)C)NC(=O)[C@H](CCC(N)=O)NC(=O)[C@@H](NC(=O)[C@H](CCC(=O)O)NC(=O)[C@H](CO)NC(=O)[C@@H](NC(=O)[C@@H](N)CO)C(C)C)[C@@H](C)CC)C(=O)N[C@@H](Cc1c[nH]cn1)C(=O)N[C@@H](CC(N)=O)C(=O)N[C@@H](CC(C)C)C(=O)NCC(=O)N[C@@H](CCCCN)C(=O)N[C@@H](Cc1c[nH]cn1)C(=O)N[C@@H](CC(C)C)C(=O)N[C@@H](CCCCN)C(=O)N[C@@H](CO)C(=O)N[C@H](CC(=O)N[C@@H](CCC(=O)O)C(=O)N[C@@H](CCCNC(=N)N)C(=O)N[C@H](C(=O)N[C@@H](CCC(=O)O)C(=O)N[C@@H](Cc1cccc2ccccc12)C(=O)N[C@@H](CC(C)C)C(=O)N[C@@H](CCCNC(=N)N)C(=O)N[C@@H](CCCCN)C(=O)N[C@@H](CC(C)C)C(=O)N[C@@H](CC(C)C)C(=O)N[C@@H](CCC(N)=O)C(=O)N[C@@H](CCCNC(=N)N)C(=O)N[C@H](C(=O)N[C@@H](Cc1c[nH]cn1)C(=O)N[C@@H](CC(N)=O)C(=O)N[C@@H](Cc1ccccc1)C(N)=O)C(C)C)C(C)C)[C@@H](C)CC` [SEQ ID NO: 37, [Nle^8, Lys^16, β-hIle^18,1-Nal^23, Leu^27, Arg^30] hPTH (1-34)-NH2] (H-SVSEIQL[Nle]HNLGKHLKS[β3hI]ERVE[1Nal]LRKLLQRVHNF-NH2): the EC50 on human PTH-2 receptor turned out to be 14 nM. On human PTH-1 receptor, the response was half-maximal at 0.14 nM (EC50) and the hPTHR-2/hPTHR-1 was determined as 97.

`CCCC[C@H](NC(=O)[C@H](CC(C)C)NC(=O)[C@H](CCC(N)=O)NC(=O)[C@@H](NC(=O)[C@H](CCC(=O)O)NC(=O)[C@H](CO)NC(=O)[C@@H](NC(=O)C(C)(C)N)C(C)C)[C@@H](C)CC)C(=O)N[C@@H](Cc1c[nH]cn1)C(=O)N[C@@H](CC(N)=O)C(=O)N[C@@H](CC(C)C)C(=O)NCC(=O)N[C@@H](CCCCN)C(=O)N[C@@H](Cc1c[nH]cn1)C(=O)N[C@@H](CC(C)C)C(=O)N[C@@H](CC(N)=O)C(=O)N[C@@H](CO)C(=O)N[C@H](CC(=O)N[C@@H](CCC(=O)O)C(=O)N[C@@H](CCCNC(=N)N)C(=O)N[C@H](C(=O)N[C@@H](CCC(=O)O)C(=O)N[C@@H](Cc1cccc2ccccc12)C(=O)N[C@@H](CC(C)C)C(=O)N[C@@H](CCCNC(=N)N)C(=O)N[C@@H](CCCCN)C(=O)N[C@@H](CC(C)C)C(=O)N[C@@H](CC(C)C)C(=O)N[C@@H](CCC(N)=O)C(=O)N[C@@H](CC(=O)O)C(=O)N[C@H](C(N)=O)C(C)C)C(C)C)[C@@H](C)CC` [SEQ ID NO: 5, [Aib^1, Nle^8, β-hIle^18,1-Nal^23, Leu^27] hPTH (1-31)-NH2] (H-[Aib]VSEIQL[Nle]HNLGKHLNS[β3hI]ERVE[1Nal]LRKLLQDV-NH2) came in with an EC50 at human PTH-2 receptor of 18 nM. For the same compound, on human PTH-1 receptor, the EC50 is 0.05 nM, the hPTHR-2/hPTHR-1 stood at 387 and the “Selectivity hPTHR-2/hPTHR-1” value is listed as 387.
